Reference: patent US20180326101A1, “COMPOUND AND PHARMACEUTICAL COMPOSITION FOR TARGETED DRUG DELIVERY” (SeeCure Taiwan Co., Ltd., priority 2017, published 2018)

Target: T1, XC transporter (Homo sapiens, UniProt Q9UPY5)
T1 construct: endogenous in cells; host or cells: U251 cell line
T1 sequence (Q9UPY5 1-501): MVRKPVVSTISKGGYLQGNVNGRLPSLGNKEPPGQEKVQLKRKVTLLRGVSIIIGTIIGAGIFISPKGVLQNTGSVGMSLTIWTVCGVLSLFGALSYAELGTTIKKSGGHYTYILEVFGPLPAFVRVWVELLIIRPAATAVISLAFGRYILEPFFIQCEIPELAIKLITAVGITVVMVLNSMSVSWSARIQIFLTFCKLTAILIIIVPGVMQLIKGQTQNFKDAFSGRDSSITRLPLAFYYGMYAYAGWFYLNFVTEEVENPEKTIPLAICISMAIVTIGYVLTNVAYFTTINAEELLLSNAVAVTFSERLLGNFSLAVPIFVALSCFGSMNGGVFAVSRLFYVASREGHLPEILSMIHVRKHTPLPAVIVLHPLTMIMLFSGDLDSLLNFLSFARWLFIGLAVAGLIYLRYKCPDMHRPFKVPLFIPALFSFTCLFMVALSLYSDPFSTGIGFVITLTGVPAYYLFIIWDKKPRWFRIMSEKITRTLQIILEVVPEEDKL
T1 sequence (P08195 1-529 partner): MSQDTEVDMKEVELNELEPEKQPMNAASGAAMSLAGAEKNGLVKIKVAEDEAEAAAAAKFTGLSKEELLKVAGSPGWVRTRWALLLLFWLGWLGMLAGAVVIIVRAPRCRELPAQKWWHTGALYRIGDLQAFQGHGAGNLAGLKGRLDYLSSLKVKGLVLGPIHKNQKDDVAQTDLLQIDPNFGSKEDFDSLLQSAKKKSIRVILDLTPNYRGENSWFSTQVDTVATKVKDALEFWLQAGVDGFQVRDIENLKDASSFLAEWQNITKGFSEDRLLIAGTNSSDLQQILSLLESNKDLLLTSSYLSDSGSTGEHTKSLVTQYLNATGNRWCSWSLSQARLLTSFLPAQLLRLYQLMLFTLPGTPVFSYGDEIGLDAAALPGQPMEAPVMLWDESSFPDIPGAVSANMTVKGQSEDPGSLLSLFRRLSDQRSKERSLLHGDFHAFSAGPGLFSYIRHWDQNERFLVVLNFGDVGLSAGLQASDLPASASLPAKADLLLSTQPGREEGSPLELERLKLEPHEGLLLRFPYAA
Test: Blocking studies of cellular uptake with sulfasalazine (SAS) or cysteine
Type: cell-based
Conditions: U251 cells, 2 hours incubation
Method: The cellular uptake of the ^99mTc-SAC-A and the ^99mTc-SAC-B compounds were performed using an U251 cell line. The cells were planted onto tissue culture plates at a concentration of 350,000 cells per well for the uptake and blocking studies. The cells were cultured in Eagle's MEM with Earle's BSS (90%) and fetal bovine serum (10%) under standard culture conditions (37° C., 95% humidified air and 5% CO2). After seeding, the cells were incubated at 37° C. for 48 hours to allow for cell attachment and growth. After reaching approximately 70% confluency of cells, the cells are ready for use in the cellular uptake/blocking experiments.
Specifically, upon reaching 70% cell confluency, the growth media were aspirated and the cells were washed twice with phosphate buffered saline (PBS). Serum-free media and the ^99mTc-SAC-A compound or ^99mTc-SAC-B compound obtained above were respectfully added to the each of the wells for performing the cellular uptake experiment. For the blocking studies, the cells were pre-treated with 500 μM and 1000 μM of sulfasalazine (SAS; a XC transporter specific inhibitor) or 500 μM and 1000 μM of cysteine (a competitive inhibitor) for 30 minutes prior to the addition of the ^99mTc-SAC-A or ^99mTc-SAC-B compounds. […] After 2 hours, the cells in each of the wells are washed with PBS, the cells are then collected and its radioactivity were counted using a gamma counter. […]

## N[C@@H](CS[C@@H](CC(=O)O)C(=O)O)C(=O)O [SAC-B]
500 μM and 1000 μM cysteine pre-treatment 30 min
  cellular uptake when blocking agent cysteine (competitive inhibitor) was added: mostly inhibited
500 μM and 1000 μM sulfasalazine pre-treatment 30 min
  cellular uptake when blocking agent SAS (XC transporter specific inhibitor) was added: mostly inhibited
